In BigSolDB 2.1:

CC(C)(C)[C@H](O)[C@H](Cc1ccc(Cl)cc1)n1cncn1 (racemic)
solubility (mole fraction)
Conditions	in 1,4-dioxane	in acetone	in acetonitrile	in ethanol	in ethyl acetate	in isopropanol	in n-butanol	in n-propanol	in toluene
278.15 K	0.0156	0.0135	0.00239	0.00749	0.00783	0.00707	0.0134	0.0124	0.0416
280.65 K	0.0168	0.0145	0.00267	0.0081	0.00895	0.00766	0.0141	0.0131	0.0426
283.15 K	0.0183	0.0155	0.00295	0.00885	0.0104	0.00835	0.0151	0.0139	0.0437
285.65 K	0.0203	0.0167	0.00331	0.00979	0.0118	0.00912	0.0162	0.0146	0.045
288.15 K	0.0223	0.0181	0.00366	0.0107	0.0133	0.00985	0.0173	0.0155	0.0462
290.65 K	0.0248	0.0194	0.00405	0.0117	0.0153	0.0108	0.0184	0.0163	0.0473
293.15 K	0.0271	0.0209	0.00449	0.0128	0.0175	0.0117	0.0198	0.0172	0.0484
295.65 K	0.0296	0.0223	0.00495	0.0138	0.0201	0.0127	0.0211	0.0182	0.0496
298.15 K	0.0324	0.0239	0.00544	0.0149	0.0228	0.0138	0.0224	0.0192	0.0508
300.65 K	0.0351	0.0253	0.00596	0.016	0.0255	0.0149	0.0238	0.0203	0.0521
303.15 K	0.0381	0.0269	0.00653	0.0173	0.029	0.0161	0.0251	0.0215	0.0533
305.65 K	0.0412	0.0284	0.00709	0.0185	0.0324	0.0173	0.0266	0.0228	0.0546
308.15 K	0.044	0.0301	0.00776	0.02	0.0359	0.0185	0.0279	0.0241	0.0557
310.65 K	0.0475	0.0317	0.00846	0.0214	0.0395	0.0197	0.0295	0.0253	0.057
313.15 K	0.0512	0.0335	0.00916	0.0229	0.0444	0.021	0.0308	0.0265	0.0584
315.65 K	0.0551	0.0353	0.01	0.0246	0.0497	0.0225	0.0324	0.0278	0.0597
318.15 K	0.0593	0.0372	0.011	0.0265	0.0552	0.0242	0.0341	0.0291	0.061
